Molecular target: T1, DNase activity of AChE (Homo AChE protein) (Homo sapiens, UniProt P22303)
T1 construct: AChE 1-547AA corresponding to human; AChE1-548AA corresponding to mouse; made in house
Test: Effect of metal cations and chelators on DNase activity of Homo AChE
Format: biochemical
Settings: 2.5 mM CaCl2, 5 mM MgCl2, 0.5 mM EGTA, 0.5 mM EDTA; 6 h
Procedure: A. In the presence of 2.5 mM CaCl2, 5 mM MgCl2, 0.5 mM EGTA, 0.5 mM EDTA or the combination thereof, plasmid DNA (pEGFP-C1 plasmid) was incubated with Homo AChE protein for 6 h.
Purified plasmid DNA was used as substrate for detection. In the experiment of cleaving of plasmid DNA, 0.15 μg of plasmid DNA with a transfection-grade purity (pEGFP-C1 plasmid, Clotech) was added to 10 μl buffer system containing (5.0 mM Tris-HCl, PH 7.5; 2.5 mM CaCl2; 5.0 mM MgCl2). 1 μg (or an amount indicated in Examples) of purified AChE proteins of human or mouse origin (AChE 1-547AA corresponding to human; AChE1-548AA corresponding to mouse) was further added, and incubated in 37° C. Sampling at 6 h (or timepoints indicated in Examples).

T1 sequence (P22303 32-578): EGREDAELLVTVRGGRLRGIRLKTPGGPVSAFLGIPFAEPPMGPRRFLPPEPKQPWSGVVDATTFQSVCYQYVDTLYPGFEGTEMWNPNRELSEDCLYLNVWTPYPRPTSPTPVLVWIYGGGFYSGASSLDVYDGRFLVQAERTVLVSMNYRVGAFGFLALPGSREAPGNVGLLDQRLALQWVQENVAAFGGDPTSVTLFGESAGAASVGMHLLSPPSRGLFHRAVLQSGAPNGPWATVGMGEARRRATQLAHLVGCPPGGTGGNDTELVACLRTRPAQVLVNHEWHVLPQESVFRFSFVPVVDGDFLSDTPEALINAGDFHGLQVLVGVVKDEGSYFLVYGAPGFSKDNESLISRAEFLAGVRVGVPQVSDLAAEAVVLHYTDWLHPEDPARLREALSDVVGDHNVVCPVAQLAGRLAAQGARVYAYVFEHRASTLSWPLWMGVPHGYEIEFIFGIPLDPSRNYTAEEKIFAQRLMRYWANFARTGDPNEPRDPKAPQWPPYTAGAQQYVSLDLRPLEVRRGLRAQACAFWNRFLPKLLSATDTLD

| SMILES | effect on activity of AChE cleaving DNA |
| --- | --- |
| O=C(O)CN(CCN(CC(=O)O)CC(=O)O)CC(=O)O [EDTA] | significantly inhibited |
| O=C(O)CN(CCOCCOCCN(CC(=O)O)CC(=O)O)CC(=O)O [EGTA] | not obvious |

Reference: patent US20140248254A1, “THE USE OF ACHE AS NUCLEASE” (priority 2011, published 2014)
